Holding throughout (type): cell-based
One data set deals with miR-152. The experiment in a line: Relative quantification of miR-152 level by Real Time PCR in treated or transfected fibroblasts. Conditions: primary human fibroblasts, 48 hours treatment, concentration indicated in FIG. 13 (not given); control = 1.00±0.01. Here is the method:
(§1) Neonatal Human Primary Dermal Fibroblasts (HDFn, Cascade, Invitrogen, Carlsbad, Calif., USA) were cultured in 106 medium added with LSGS growth supplements (Cascade). Cells were passaged usually once a week, at each passage the harvested cells number and seeded cell number were recorded in order to calculate the population doublings occurring between passages and the population doubling time. At each passage different aliquots of the cells were harvested to extract in triplicate RNA and proteins and an aliquot was submitted to senescence activated β-galactosidase staining in order to assay the senescent or non-senescent state of the cells. […]
(§2) Total RNA from cells was isolated using mirVana mirRNA Isolation Kit (Ambion) by following the manufacturer's protocol for total RNA extraction. Total RNA was quantified using a NanoDrop Spectophotometer (Thermo Scientific, Delaware, USA) and RNA quality was controlled on an agarose gel. […] The expression of each gene and miR was defined from the threshold cycle (Ct), and relative expression levels were calculated by using the 2-ΔΔCt method after normalization with reference to the expression of the housekeeping gene U18.
A general note: Real-time PCR tracks product formation cycle by cycle.

The subject of another data set is miR-134. The experiment in a line: Relative quantification of miR-134 level by Real Time PCR in treated or transfected fibroblasts. The conditions noted are these: primary human fibroblasts, 48 hours treatment, concentration indicated in FIG. 12 (not given); control = 1.00±0.01. Here is the method:
as §1, §2

Data set [1] has as its system primary human fibroblasts. In words: Cell proliferation, BrdU pulse and flow cytometry after transfection. Conditions: 96 hours after transfection, 3 h BrdU pulse; negative control 26%. As to the method: (§3) Neonatal Human Primary Dermal Fibroblasts (HDFn, Cascade, Invitrogen, Carlsbad, Calif., USA) were cultured in 106 medium added with LSGS growth supplements (Cascade). Cells were passaged usually once a week, at each passage the harvested cells number and seeded cell number were recorded in order to calculate the population doublings occurring between passages and the population doubling time. At each passage different aliquots of the cells were harvested to extract in triplicate RNA and proteins and an aliquot was submitted to senescence activated β-galactosidase staining in order to assay the senescent or non-senescent state of the cells.
(§4) Human primary fibroblasts were transfected with human pre-miR 134, anti-miR-134, pre-miR-152, anti-miR-152 and scramble sequence as negative control (Ambion, Tex., USA) using the Lipofecatmine RNAimax transfection reagent (Invitrogen) according to manufacturer protocols. 24 hrs after transfection, the medium was removed and replaced with fresh medium.
Methods used to evaluate cell proliferation are generally based on incorporation of thymidine analogues such as 3H thymidine or bromodeoxyuridine (BrdU) during DNA synthesis. […] Cell cycle was analysed using a FACS Calibur flow cytometer (BD Biosciences, San Jose, Calif., USA). Fifteen thousand events were evaluated using the Cell Quest (BD) and Modfit LT (Verity Software; BD) programs.
A general note: In flow cytometry, cells or beads pass a laser one at a time.

Another data set has as its system ITGA9 mRNA. The experiment in a line: Relative quantification of ITGA9 mRNA level by Real Time PCR after transfection. The conditions noted are these: human dermal fibroblasts, 96 hours after transfection. As to the method: as §1, §2
A further data set relates to ITGA5 mRNA. In words: Relative quantification of ITGA5 mRNA level by Real Time PCR after transfection. The conditions noted are these: human dermal fibroblasts, 96 hours after transfection. As to the method: as §1, §2
In another data set the test system is ITGA5. In words: Western blot of ITGA5 protein level after transfection. Conditions: human fibroblasts after transfection; β-Actin loading control. Here is the method: as §3, §4
Total cell extracts were resolved on a SDS polyacrylamide gel, blotted on a Hybond P PVDF membrane (G&E Healthcare, UK). […]
(In general: In western blotting, separated proteins are transferred to a membrane and probed.)

`O.Oc1cc(O)c2c(c1)O[C@H](c1ccc(O)c(O)c1)[C@@H](O)C2` [Compound 2, Catechine Hydrate]: in the data set on miR-152, the “expression of miR-152 in treated cells (relative quantification)” value is 0.769±0.03.
Turning to `O=C(O[C@@H]1Cc2c(O)cc(O)cc2O[C@@H]1c1cc(O)c(O)c(O)c1)c1cc(O)c(O)c(O)c1` [Compound 4, Epigallocatechine Gallate], in the data set on miR-134, the “expression of miR-134 in treated cells (relative quantification)” value is given as 0.603±0.03. Besides, in the data set with miR-152, the “expression of miR-152 in treated cells (relative quantification)” value was 0.804±0.05.
As for `C[C@@H]1O[C@@H](O[C@@H]2[C@@H](O)[C@H](OCCc3ccc(O)c(O)c3)O[C@H](CO)[C@H]2OC(=O)/C=C/c2ccc(O)c(O)c2)[C@H](O)[C@H](O)[C@H]1O` [Compound 5, Verbascoside], the “expression of miR-134 in treated cells (relative quantification)” value in the data set with miR-134 stood at 0.734±0.05.
Consider “miR-134: human pre-miR 134 (Ambion) transfected into fibroblasts; mature miR-134 SEQ ID No. 1 ugugacugguugaccagagggg (UGUGACUGGUUGACCAGAGGGG; delivered as commercial pre-miR precursor, further chemistry not given here; listed as Homo sapiens)”, for which the “percentage of BrdU positive primary human fibroblasts” value in data set [1] was determined as 19%. In addition, the “ITGA9 mRNA level reduction” value in the data set with ITGA9 mRNA is 20%.
For the compound “miR-152: human pre-miR-152 (Ambion) transfected into fibroblasts; mature miR-152 SEQ ID No. 2 UCAGUGCAUGACAGAACUUGG (delivered as commercial pre-miR precursor, further chemistry not given here; listed as Homo sapiens)”, in data set [1], the “percentage of BrdU positive primary human fibroblasts” value was 18%. Besides, the “ITGA9 mRNA level reduction” value in the data set with ITGA9 mRNA is reported as 40%. The “ITGA5 mRNA level reduction” value in the data set on ITGA5 mRNA is given as 30%. The “ITGA5 protein level (Western blot)” value in the data set with ITGA5 was “significant decrease”.

Source of the values: patent US9568467B2, “Inhibitors of micro-RNAs for use for preventing and/or attenuating skin ageing” (CHANEL PARFUMS BEAUTE, priority 2012, dated 2017).
